Here are results for 1 molecule from US20110224242A1, “STYRLYQUINOLINES, THEIR PROCESS OF PREPARATION AND THEIR THERAPEUTIC USES” (BIOALLIANCE PHARMA, priority 2008, published 2011).

Series [1] concerns the target T1, HBX2 HIV integrase (Human immunodeficiency virus type 1 group M subtype B, UniProt P04585).
T1 construct: contains the cDNA encoding the HBX2 HIV integrase; His tag (N, cleaved yes); made in house; host or cells: Escherichia coli BL21 (DE3)
The experiment in a line: Strand transfer assay. The format is biochemical. On the procedure: The pET-15b-IN plasmid contains the cDNA encoding the HBX2 HIV integrase. His-tagged integrase protein was overexpressed in Escherichia coli BL21 (DE3) and purified under native conditions. Briefly, at an OD of 0.8, fusion protein expression was induced in bacterial cultures by the addition of IPTG (1 mM). Cultures were incubated for 3 h at 37° C., of ter which cells were centrifuged. The cell pellet was resuspended in ice-cold buffer A [20 mM Ths-HCl (pH 8), 1 M NaCl, 4 mM β-mercaptoethanol, and 5 mM imidazole], treated with lysozyme for 1 h on ice, and sonicated. After centrifugation (30 min at 10 000 rpm), the supernatant was filtered (0.45 μm) and incubated for at least 2 h with Ni-NTA agarose beads (Pharmacia). The beads were washed twice with 10 volumes of buffer A, 10 volumes of buffer A with 50 mM imidazole, and 10 volumes of buffer A with 100 mM imidazole. His-tagged integrase was then eluted with buffer A supplemented with 50 μM ZnSO4 and 1 M imidazole. […]
Processing, strand transfer reactions were performed using U5A-U5B-2, in buffer containing 20 mM Tris (pH 7.2), 50 mM NaCl, 10 mM DTT, 1 OmM MgCl2. […] Gels were analyzed using a STORM Molecular Dynamics phosphorimager and quantified with Image Quant™ 4.1 software.

Series [2] is described as follows: Stability in Hepes buffer 0.5 M pH 7.5 (UV spectrophotometry). Format: physicochemical. The conditions noted are these: HEPES 0.5 M pH 7.5, 37°, 50 μM (SQE94 and 79 at 25 μM). As for the experimental part: 2.1. Hepes Buffer 0.5M, pH 7.5. 16 μl of drug at 25 mM, in 8 ml of Hepes Buffer. Different time points were done, Oh, 2 h, 4 h, 24 h, and 48 h.
Stability of the compounds was performed in HEPES Buffer 0.5 M (pH 7.5) at 37 O, at a concentration of 50 μM. Compounds SQE94 and 79 were tested at a concentration of 25 μM to avoid parasite precipitation phenomena. Typically, stock solutions of compounds in DMSO (25 mM) were diluted in HEPES Buffer. Dilutions were stored at 37° C., protected from light. Sampling was done at different time points. Samples were analyzed on an UV-spectrophotometer using a wavelength scan between 200 and 700 nm. Superposition of UV-spectra gives the qualitative aspect of the stability of the drug. Based on the Beer-Lambert law, percentage of degradation of the drug over time was calculated, when placed at the maximum absorption wavelength.

The subject of series [3] is wild type HIV-1 virus (NL 4.3 strains). The series is described as follows: Antiviral activity assay CEM cells (p24 ELISA). Format: cell-based. The settings on record: Human immunodeficiency virus 1, CCRF-CEM; CEM cells, HIV-1 NL 4.3, 48 hours, p24; read-out: CEM. As for the experimental part:
The activity is determined by infecting CEM cells with a wild type HIV-1 virus (NL 4.3 strains at 3 ng) on cells in presence or absence of drugs. A serial dilution of drugs is done to evaluate the EC50. […] After 48 hours incubation, the quantification is done by the evaluation of the viral protein p24 with a commercial Elisa Kit. P24 is a protein essential to the replication virus cycle. The quantification of this enzyme is proportional to the amount of virus produced by the infected cells.

The nature of the next series: in vitro. The format is cell-based. The settings on record: human. As for the experimental part:
The cytotoxicity of compounds was evaluated using un-infected and infected Hel_a-P4 cell and CEM leukemia cells. CEM cell were obtained from the American Type Tissue Collection (Rockville, Md.).
A serial dilution of drugs is done to evaluate the cytotoxicity concentration and is identified by CC50 (concentration of drug which induces 50% of cytotoxicity)
The HeLa-P4 was cultured in the presence or absence of compounds for 2 days. After this time period, cells were cultivated with MTT for 3 hours, further the medium is removed. And the lysis buffer is incubated for 1 hour, followed by plate reading at 540 nm in a microplate reader.

Series [4] can be described thus: Stability by HPLC in PEG400 and Vitamine E-TPGS/PEG 400 mixtures. Format: physicochemical. The conditions noted are these: within only 3 hrs, mixtures of excipients. As for the experimental part: The second stability assay consists in the assessment according to standard HPLC analysis protocols over 24 hrs in PEG400 and Vitamine E-TPGS/PEG 400 mixtures, by focusing on the evolution of the concentration and peak purity of the compound. Compounds were dissolved in appropriate amounts of solvent and let under stirring protected from light for 24 hrs. Aliquots were transferred into eppendorfs and centrifuged at 10 000 g for 10 min. Supernatants were collected and appropriately diluted in DMSO/mobile phase mixtures before HPLC analysis. The Waters HPLC analysis system equipped with an ultraviolet detector and a Waters Symmetry Shield C18 column of 2.1 mm×50 mm ([…]) was used. A mobile phase of water/acetic acid 0.1% (Solvant A): Acetonitrile/acetic acid 0.1% (solvent B) mixture or a water/trifluoroacetic acid 0.1% (Solvant A): Acetonitrile/trifluoroacetic acid 0.1% (solvent B) mixture in the case of compound FZ41 was pumped according to a binary gradient described below, at a flow rate of 0.4 ml/min.

A short description of series [5]: Chemical stability at pH between 1 and 7. The format is physicochemical. The settings on record: within less than 24 hrs, pH between 1 and 7.
For series [6], the system named is wild type HIV-1 virus (NL 4.3 strains). The experiment in a line: Antiviral activity assay on Hela P4 cells (beta-galactosidase, CPRG). The format is cell-based. The settings on record: Human immunodeficiency virus 1, HeLaP4; HeLa P4 cells, HIV-1 NL 4.3, 48 hours; read-out: P4 IC50. As for the experimental part: The antiviral activity is determined by infecting HelaP4 cells with a wild type HIV-1 virus (NL 4.3 strains at 3 ng) on cells in presence or absence of drugs. A serial dilution of drugs is done to evaluate the EC50. The effective concentration is the concentration of product at which virus replication is inhibited by 50 percent. After 48 hours incubation, the quantification is done by the evaluation of β-Galactosidase produced by the infected Hela P4 cells. The viral activity is evaluated by colorimethc assay, CPRG, followed by plate reading at 570 nm with a reference of 690 nm. The CPRG test is a colorimetric assay which allows to quantity the β-galactosidase produced by HIV-1 infected indicator cells (the β-Gal gene being under the control of the HIV-1 LTR).

In series [7] the target is T1, HBX2 HIV integrase. The series is described as follows: 3' LTR processing assay. The format is biochemical. As for the experimental part:
The pET-15b-IN plasmid contains the cDNA encoding the HBX2 HIV integrase. His-tagged integrase protein was overexpressed in Escherichia coli BL21 (DE3) and purified under native conditions. Briefly, at an OD of 0.8, fusion protein expression was induced in bacterial cultures by the addition of IPTG (1 mM). Cultures were incubated for 3 h at 37° C., of ter which cells were centrifuged. The cell pellet was resuspended in ice-cold buffer A [20 mM Ths-HCl (pH 8), 1 M NaCl, 4 mM β-mercaptoethanol, and 5 mM imidazole], treated with lysozyme for 1 h on ice, and sonicated. After centrifugation (30 min at 10 000 rpm), the supernatant was filtered (0.45 μm) and incubated for at least 2 h with Ni-NTA agarose beads (Pharmacia). The beads were washed twice with 10 volumes of buffer A, 10 volumes of buffer A with 50 mM imidazole, and 10 volumes of buffer A with 100 mM imidazole. His-tagged integrase was then eluted with buffer A supplemented with 50 μM ZnSO4 and 1 M imidazole. The integrase concentration was adjusted to 0.1 mg/mL in buffer A. The fusion protein was cleaved using thrombin and dialyzed overnight against 20 mM Ths-HCl (pH 8), 1 M NaCl, and 4 mM (3-mercaptoethanol. After removal of biotinylated thrombin by incubation with streptavidin-agarose magnetic beads (Novagen, Madison, Wis.), a second dialysis was performed for 2 h against 20 mM Ths-HCl (pH 8), 1 M NaCl, 4 mM mercaptoethanol, and 20% (v/v) ethylene glycol. Fractions were aliquoted and rapidly frozen at −80° C.
Oligonucleotides U5B (5′-[…]-3′), U5B-2 (5′-GTGTGGAAAATCTCTAGCA-3′), U5A (5′-[…]-3′) were purchased from Eurogentec (Liege, Belgium) and further purified on an 18% denaturing acrylamide/urea gel. For processing, strand transfer, 100 pmol of U5B, U5B-2, respectively, were radiolabeled using T4 polynucleotide kinase and 50 μCi of [γ-32P]ATP (3000 Ci/mmol). The T4 kinase was heat inactivated, and unincorporated nucleotides were removed using a Sephadex G-10 column (GE Healthcare). NaCl was added to a final concentration of 0.1 M, and complementary unlabeled strand USA was added to either U5B or U5B-2. The mixture was heated to 90° C. for 3 min, and the DNA was annealed by slow cooling.
Processing reaction was performed using U5A-U5B, in buffer containing 20 mM Tris (pH 7.2), 50 mM NaCl, 10 mM DTT, and 10 mM MgCl2. […] The reactions were stopped by phenol/chloroform extraction, and DNA products were precipitated with ethanol. The products were separated in TE containing 7 M urea and electrophoresed on an 18% denaturing acrylamide/urea gel. Gels were analyzed using a STORM Molecular Dynamics phosphorimager and quantified with Image Quant™ 4.1 software.

The IC50 is the point on the concentration scale where inhibition reaches its midpoint.

Bounds are passed on as bounds.

For the molecule `COc1cc(/C=C/c2ccc3ccc(C(=O)O)c(O)c3n2)cc(O)c1O` [FZ41, reference compound], the half-inhibitory concentration (IC50) came out at 1.7 µM at HBX2 HIV integrase [1], 5 µM in series [6] and 0.7 µM against HBX2 HIV integrase [7]. Further, the figures for the “% of degradation” value in series [2] (2 hrs), in series [2] (4 hrs) and in series [2] (24 hrs) were 31.1%, 59.6% and 64.6%, respectively. The EC50 in series [3] stood at 25 µM. This molecule also gave an IC50 at 2 days in “in vitro” of over 100 µM. Moreover, the degradation entry in series [4] is listed as “at least 10%”. Further, in series [5], the degradation rate is recorded as 50-60%.
